Results from patent US5912414A, “Nucleic acid fragments, chimeric genes and methods for increasing the methionine content of the seeds of plants” (priority 1996, dated 1999).
pIC50: −log10 of the molar value.

Tests used:
[1] = tested on: E. coli strain Gif106M1 transformed with pBT436; experiment: Growth inhibition of Gif106M1 transformed with pBT436 on supplemented M9 media; format: cell-based; conditions: M9 media with arginine, isoleucine, ampicillin; reversed by threonine plus methionine
Source text: To establish that the cloned lysC gene was functional, pBT436 was transformed into E. coli strain Gif106M1 (E. coli Genetic Stock Center strain CGSC-5074) which has mutations in each of the three E. coli AK genes [Theze et al. (1974) J. Bacteriol. 117:133-143]. This strain lacks all AK activity and therefore requires diaminopimelate (a precursor to lysine which is also essential for cell wall biosynthesis), threonine and methionine.
Addition of lysine (or diaminopimelate which is readily converted to lysine in vivo) at a concentration of approximately 0.2 mM to the growth medium inhibits the growth of Gif106M1 transformed with pBT436.M9 media [see Sambrook et al. (1989) Molecular Cloning: a Laboratory Manual, Cold Spring Harbor Laboratory Press] supplemented with the arginine and isoleucine, required for Gif106M1 growth, and ampicillin, to maintain selection for the pBT436 plasmid, was used. This inhibition is reversed by addition of threonine plus methionine to the growth media. […] This property of pBT436-transformed Gif106M1 was used to select for mutations in lysC that encoded lysine-insensitive AKIII.

[2] = target: T1, AKII-HDHII (HDH activity) (Escherichia coli, UniProt P00562); experiment: Inhibition of HDH activity of clone 5 extract (metL, AKII-HDHII) by pathway end-products; format: biochemical, E. coli; conditions: 30 mM end-product; extract from clone 5
T1 construct: made in house; host or cells: E. coli BL21(DE3), pBT430-derived expression vector; sonicated cell extract of clone 5 (pBT718)
Protocol: (§1) Cultures were grown in TB medium containing ampicillin (100 mg/L) at 37° C. overnight. The cells were collected by centrifugation and resuspended in 1/25th the original culture volume in 50 mM NaCl; 50 mM Tris-Cl, pH 7.5; 1 mM EDTA, and frozen at -20° C., thawed at 37° C. and sonicated, in an ice-water bath, to lyse the cells. The lysate was centrifuged at 4° C. for 5 min at 12,000 rpm. The supernatant was removed and the pellet was resuspended in the above buffer.
The supernatant fractions were assayed for HDH enzyme activities to identify clones expressing functional proteins. HDH activity was assayed as shown below: […]
Make Mixture of above reagents with amounts multiplied by number of assays. Use 0.9 mls of mix for 1 ml assay; 180 μl of mix for 0.2 ml assay in microtiter dish
to 1/2 the assay mix; remaining 1/2 lacks ASA to serve as blank
Add enzyme extract last to start reaction. Incubate at ~30° C.; monitor NADPH oxidation at […]. 1 unit oxidizes 1 μmol NADPH/min at 30° C. in the 1 ml reaction.
(§2) Two extracts also had high levels of AK enzyme activity. These two extracts were then tested for inhibition of AK or HDH activity by the pathway end-products, lys, thr and met.

AKII-HDHII (AK activity) = target: T2, AKII-HDHII (AK activity) (Escherichia coli, UniProt P00562); experiment: Inhibition of AK activity of clone 5 extract (metL, AKII-HDHII) by pathway end-products; format: biochemical, E. coli; conditions: 30 mM end-product; extract from clone 5
T2 construct: made in house; host or cells: E. coli BL21(DE3), pBT430-derived expression vector; sonicated cell extract of clone 5 (pBT718)
Protocol: as §1
(§3) Assay mix (for 12×1.0 mL or 48×0.25 mL assays):
(§4) Each 1.5 ml eppendorf assay tube contains: […]
(§5) Spin for 2 min in eppendorf centrifuge tube.
as §2

[3] = tested on: lysine-insensitive AKIII (mutant lysC genes M2, M3, M4); experiment: Inhibition by lysine of AKIII encoded by mutant lysC genes (lysine-resistant clones); format: biochemical, E. coli; conditions: 15 mM lysine; three of six lysine-resistant plasmids
wild type AKIII = target: T3, wild type AKIII (Escherichia coli, UniProt P08660); experiment: Inhibition of wild type AKIII aspartokinase activity by lysine; format: biochemical, E. coli
T3 construct: made in house; host or cells: E. coli Gif106M1 transformed with pBT436 (the plasmid of the cloned wild type lysC gene)
Protocol: Single colonies of Gif106M1 transformed with pBT436 were picked and resuspended in 200 μL of a mixture of 100 μL 1% lysine plus 100 μL of M9 media. The entire cell suspension containing 10^7 -10^8 cells was spread on a petri dish containing M9 media supplemented with the arginine, isoleucine, and ampicillin. Sixteen petri dishes were thus prepared. From 1 to 20 colonies appeared on 11 of the 16 petri dishes. One or two (if available) colonies were picked and retested for lysine resistance and from this nine lysine-resistant clones were obtained. Plasmid DNA was prepared from eight of these and re-transformed into Gif106M1 to determine whether the lysine resistance determinant was plasmid-borne. Six of the eight plasmid DNAs yielded lysine-resistant colonies. Three of these six carried lysC genes encoding AKIII that was uninhibited by 15 mM lysine, whereas wild type AKIII is 50% inhibited by 0.3-0.4 mM lysine and >90% inhibited by 1 mM lysine (see Example 2 for details).
as §3, §4, §5

T1 sequence (P00562 other isoform, or with tags, fused parts or gaps): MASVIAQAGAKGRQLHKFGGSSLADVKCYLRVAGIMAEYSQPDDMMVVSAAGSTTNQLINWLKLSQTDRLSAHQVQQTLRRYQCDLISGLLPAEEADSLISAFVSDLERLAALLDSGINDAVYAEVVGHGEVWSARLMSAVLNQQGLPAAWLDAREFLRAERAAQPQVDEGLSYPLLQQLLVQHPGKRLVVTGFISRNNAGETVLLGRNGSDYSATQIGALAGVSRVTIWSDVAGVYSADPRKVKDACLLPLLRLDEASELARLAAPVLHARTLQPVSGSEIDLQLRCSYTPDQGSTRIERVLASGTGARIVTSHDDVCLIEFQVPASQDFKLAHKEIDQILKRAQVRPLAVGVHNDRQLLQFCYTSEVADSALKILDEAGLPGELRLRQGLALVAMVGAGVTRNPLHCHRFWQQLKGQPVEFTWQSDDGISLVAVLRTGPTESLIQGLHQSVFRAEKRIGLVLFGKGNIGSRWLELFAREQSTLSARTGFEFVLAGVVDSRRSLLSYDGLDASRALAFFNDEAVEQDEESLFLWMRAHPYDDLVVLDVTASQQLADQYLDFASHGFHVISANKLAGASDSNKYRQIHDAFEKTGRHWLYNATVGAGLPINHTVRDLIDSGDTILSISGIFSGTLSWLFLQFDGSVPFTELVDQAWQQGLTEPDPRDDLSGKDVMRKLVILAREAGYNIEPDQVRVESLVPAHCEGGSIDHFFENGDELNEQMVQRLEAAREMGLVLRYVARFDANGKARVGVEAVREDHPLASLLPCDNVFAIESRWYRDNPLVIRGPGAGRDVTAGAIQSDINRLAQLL
T2 sequence (P00562 other isoform, or with tags, fused parts or gaps): as above
T3 sequence (P08660 2-449): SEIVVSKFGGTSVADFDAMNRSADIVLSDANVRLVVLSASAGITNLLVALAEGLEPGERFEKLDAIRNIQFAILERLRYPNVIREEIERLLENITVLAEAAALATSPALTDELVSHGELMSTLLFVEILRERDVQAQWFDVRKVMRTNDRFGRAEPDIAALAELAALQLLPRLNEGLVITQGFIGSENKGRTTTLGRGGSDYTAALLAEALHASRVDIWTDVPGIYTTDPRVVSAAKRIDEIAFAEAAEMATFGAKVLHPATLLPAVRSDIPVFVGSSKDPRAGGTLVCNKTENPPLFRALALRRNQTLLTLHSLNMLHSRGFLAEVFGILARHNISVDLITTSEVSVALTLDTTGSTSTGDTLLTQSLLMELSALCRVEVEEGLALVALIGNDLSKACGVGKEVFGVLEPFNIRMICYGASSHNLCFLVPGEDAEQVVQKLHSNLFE

SMILES | concentration in the growth medium that inhibits growth [1] | inhibition of HDH activity [2] | inhibition of AK activity (AKII-HDHII (AK activity)) | inhibition of AKIII encoded by mutant lysC genes [3] | inhibition at 1000 µM (wild type AKIII; read-out: inhibition of wild type AKIII) | pIC50 (wild type AKIII; wild type AKIII from cloned lysC (pBT436), read-out: lysine concentration giving 50% inhibition of wild type AKIII)
NCCCC[C@H](N)C(=O)O [lysine] | approximately 0.2 mM | Neither the AK nor the HDH activity of the extract from clone 5 was inhibited | Neither the AK nor the HDH activity of the extract from clone 5 was inhibited | uninhibited | > 90% | 3.40 to 3.52
NC(CCCC(N)C(=O)O)C(=O)O (centres unmarked) [diaminopimelate] | approximately 0.2 mM | – | – | – | – | –
CSCC[C@H](N)C(=O)O [met, methionine] | – | Neither the AK nor the HDH activity of the extract from clone 5 was inhibited | Neither the AK nor the HDH activity of the extract from clone 5 was inhibited | – | – | –
C[C@@H](O)[C@H](N)C(=O)O [thr, threonine] | – | Neither the AK nor the HDH activity of the extract from clone 5 was inhibited | Neither the AK nor the HDH activity of the extract from clone 5 was inhibited | – | – | –
